In article PMC6382862 (Scientific Reports, 2019):
Several values for one entry are separate records, joined by “and”; a condition that tells them apart may be missing. Equal entries are not always repeated. Each block holds one molecule with its values, some of them ahead of it.

Key:
[1] = system: cell surface LDLR, HepG2 cells; conditions: cited from earlier work
Procedure: It is useful to underline, that in our case the cells were treated with a lower PCSK9 concentration (4 μg/mL) and for a shorter time (2 h) in respect to the conditions applied by Zhang and co-w ... || In a recent study, Zhang and co-workers[18] have developed new antagonists. […] In particular, in presence of PCSK9, Fusion 1 peptid ...

[2] = system: LDLR protein level on HepG2 cell surface; assay: In cell western (ICW) assay of LDLR protein level on HepG2 cell surface in presence of PCSK9; assay type: cell-based, human; conditions: PCSK9 alone decreased LDLR by 37.62%, mean of three independent experiments
Procedure: This reliable technique was used to investigate the effects of the mutated peptides on the modulation of the LDLR protein levels localized on the HepG2 cell surface. Taking this into consideration, to evaluate only the LDLR surface levels no permeabilization step was included in the applied procedure.
(§1) The HepG2 cell line was cultured in DMEM high glucose with stable L-glutamine supplemented with 10% FBS, 100 U/mL penicillin, 100.0 µg/mL streptomycin and incubated at 37 °C under 5% CO2 atmosphere. HepG2 cells were used for no more than 20 passages after thawing, because the increase of the number of passages may change the cell characteristics and impair assay results.
A total of 3.0 × 10^4 HepG2 cells/well were seeded in 96-well plates, respectively. The following day, cells were washed with PBS and then starved overnight (O/N) in DMEM without FBS.
Treated HepG2 cells were fixed in 4% paraformaldehyde for 20 min at room temperature (RT). Cells were washed 5 times with 100.0 µL of PBS/well (each wash was for 5 min at RT) and the endogenous peroxides activity was quenched adding 3% H2O2 in PBS for 20 min at RT. Non-specific sites were blocked with 100.0 µL/well of 5% BSA in PBS for 1.5 h at RT. LDLR primary antibody solution (1:3000 in 5% BSA in PBS, 25 µL/well) was incubated O/N at 4 °C. Subsequently, the primary antibody solution was discarded and each sample was washed 5 times with 100.0 µL/well of PBS (each wash was for 5 min at RT). Goat anti-rabbit Ig-HRP secondary antibody solution (1:6000 in 5% BSA in PBS, 50.0 µL/well) was added and incubated for 1 h at RT. The secondary antibody solution was washed 5 times with 100.0 µL/well of PBS (each wash for 5 min at RT). Freshly prepared TMB substrate (100.0 µL/well), was added and the plate was incubated at room temperature (RT) until desired color was developed. The reaction was then stopped with 2 M H2SO4 and the absorbance at 450 nm was measured using the Synergy H1 fluorescent plate reader from Biotek. Cells were stained by adding 1 × Janus green stain, incubating for 5 min at RT. The dye was removed and the sample washed 5 times with water. Afterward 0.1 mL 0.5 M HCl per well were added and incubated for 10 min. After 10 sec shaking, the OD at 595 nm was measured using the Synergy H1 fluorescent plate reader from Biotek.

HepG2 cells = assay: Fluorescent LDL uptake cell based assay in PCSK9-treated HepG2 cells; design: species or system human; conditions: for LDL-uptake restored (versus untreated cells): then LDL-DyLight 550 2 h, PCSK9 alone reduced uptake by 32.7%, mean of three independent experiments; for Times more active than Pep2-8 in restoring LDL uptake: compared with 50 µM Pep2-8
Procedure: as §1
HepG2 cells (3.0 × 10^4/well) were seeded in black 96-well plates and kept in complete growth medium for 2 d before treatment. The third day, they were treated with 4.0 μg/mL PCSK9 and 4.0 μg/mL PCSK9 + peptides (0.5-50.0 µM), and vehicle (H2O) for 2 h with at 37 °C under 5% CO2 atmosphere. At the end of the treatments, the culture medium was replaced with 50.0 μl/well LDL-DyLight™ 550 working solution (Cayman Chemical Company, Ann Arbor, MI, US). The cells were additionally incubated for 2 h at 37 °C and then the culture medium was aspirated and replaced with PBS (100.0 μl/well). The degree of LDL uptake was measured using the Synergy H1 fluorescent plate reader from Biotek (excitation and emission wavelengths 540 and 570 nm, respectively).

[3] = target: T1, PCSK9/LDLR PPI (His-tagged PCSK9, recombinant LDLR-AB domain) (Homo sapiens, UniProt Q8NBP7); assay: In vitro PCSK9-LDLR binding assay (CycLex); conditions: peptide 100 µM; absorbance 450 nm; three independent experiments in duplicate
T1 construct: purchased CycLex Co., Nagano, Japan
Procedure: Biochemical experiments, based on a PCSK9-LDLR binding assay, were performed in order to compare the ability of each derivative to impair the PPI between PCSK9 and LDLR. […] Initially, in agreement with recently published conditions[27], a preliminary screening was performed at the fixed concentration of 100 µM.
The absorbance at 450 nm was measured using the Synergy H1 fluorescent plate reader (Biotek, Bad Friedrichshall, Germany).

PCSK9 = system: PCSK9; design: method as in PMID 28825733; conditions: lower affinity than Pep2-8, still detectable by SPR; cited from earlier work
PCSK9/LDLR PPI = conditions: read-out: IC50 of PCSK9/LDLR PPI inhibition; cited from earlier work
Text: Recently, innovative technological solutions for controlling peptide metabolism and advanced administration strategies[14]–[16] have renewed the interest for novel inhibitory peptides. […] Another study, carried out by us, has identified two peptides able to inhibit the PCSK9/LDLR PPI[11]: they derive from the hydrolysis of lupin protein and have the following sequences, […] (P5) and […] (T9).

[4] = target: T2, recombinant His-tagged PCSK9 protein (proprotein convertase subtilisin/kexin type 9) (UniProt Q8NBP7 31-692); assay: ELISA; CycLex in vitro PCSK9-LDLR binding assay (colorimetric semi-quantitative solid phase binding assay); wells coated with recombinant LDLR-AB domain; His-tagged PCSK9 added with peptide (1.0-300.0 uM; first screen at 100 uM); bound His-tagged PCSK9 read as absorbance at 450 nm; competition; conditions: both partners purified
T2 construct: Proprotein convertase subtilisin/kexin type 9 (PCSK9), recombinant, of the CycLex kit; the functional rows use this molecule; also called PCSK9-WT

[5] = peptide 0.5 µM + 4 µg/mL PCSK9, 2 h
[6] = peptide 1 µM + 4 µg/mL PCSK9, 2 h
[7] = peptide 0.5 µM + 4.0 µg/mL PCSK9, 2 h
[8] = peptide 1.0 µM + 4.0 µg/mL PCSK9, 2 h

T2 sequence (Q8NBP7 31-692): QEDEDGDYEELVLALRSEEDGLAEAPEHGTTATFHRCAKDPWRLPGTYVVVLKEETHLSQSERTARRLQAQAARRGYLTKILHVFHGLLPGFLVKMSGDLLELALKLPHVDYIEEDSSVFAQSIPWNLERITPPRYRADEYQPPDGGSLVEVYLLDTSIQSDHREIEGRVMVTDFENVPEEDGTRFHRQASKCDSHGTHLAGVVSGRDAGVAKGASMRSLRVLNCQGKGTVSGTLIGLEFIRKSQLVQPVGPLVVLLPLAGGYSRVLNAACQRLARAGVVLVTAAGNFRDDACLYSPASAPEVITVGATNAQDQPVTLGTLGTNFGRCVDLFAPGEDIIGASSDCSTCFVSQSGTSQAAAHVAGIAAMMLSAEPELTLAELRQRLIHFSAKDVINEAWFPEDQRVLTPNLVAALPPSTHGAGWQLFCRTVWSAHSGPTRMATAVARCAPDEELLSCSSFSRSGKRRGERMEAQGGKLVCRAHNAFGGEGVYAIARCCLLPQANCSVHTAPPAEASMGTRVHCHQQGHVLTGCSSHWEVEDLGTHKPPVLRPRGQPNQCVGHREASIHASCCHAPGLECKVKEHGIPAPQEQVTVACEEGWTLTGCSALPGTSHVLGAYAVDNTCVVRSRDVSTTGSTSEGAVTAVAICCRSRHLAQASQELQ
T1 sequence (Q8NBP7 153-692): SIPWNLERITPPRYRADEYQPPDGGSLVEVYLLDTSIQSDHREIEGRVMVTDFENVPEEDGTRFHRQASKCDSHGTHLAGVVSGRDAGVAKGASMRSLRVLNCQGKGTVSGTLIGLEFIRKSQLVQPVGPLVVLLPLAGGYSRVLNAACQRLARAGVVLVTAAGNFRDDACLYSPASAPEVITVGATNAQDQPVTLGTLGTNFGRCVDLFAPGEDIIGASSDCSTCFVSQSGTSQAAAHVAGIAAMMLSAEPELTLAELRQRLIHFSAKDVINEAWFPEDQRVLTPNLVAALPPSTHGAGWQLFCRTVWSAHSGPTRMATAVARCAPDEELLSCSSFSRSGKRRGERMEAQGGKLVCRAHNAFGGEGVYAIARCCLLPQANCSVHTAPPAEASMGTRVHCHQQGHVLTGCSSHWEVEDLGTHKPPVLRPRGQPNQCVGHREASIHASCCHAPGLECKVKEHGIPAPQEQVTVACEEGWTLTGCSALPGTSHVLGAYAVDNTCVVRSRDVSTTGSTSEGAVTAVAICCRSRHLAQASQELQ
T1 sequence (Q8NBP7 31-152 partner limits assumed): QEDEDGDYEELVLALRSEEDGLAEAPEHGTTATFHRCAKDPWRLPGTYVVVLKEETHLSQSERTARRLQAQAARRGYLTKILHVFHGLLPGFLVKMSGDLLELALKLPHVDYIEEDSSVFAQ

- Impairment of PCSK9-LDLR binding versus control [3]: −93.0%
Molecule: Ac-TVFRSWEEYLDYV-NH2 [[T4R,W12Y]Pep2-8]
- LDLR protein level restored (versus control cells) [2, 5]: 68.1%
- LDLR protein level restored (versus control cells) [2, 6]: 75.3%
- LDLR protein level restored (versus control cells) ([2]; peptide 10.0 µM + 4 µg/mL PCSK9, 2 h): 88.3%
- Times more active than Pep2-8 in restoring LDL uptake (HepG2 cells): ~5 fold
- LDL-uptake restored (versus untreated cells) (HepG2 cells; [7]): 81.6%
- LDL-uptake restored (versus untreated cells) (HepG2 cells; [8]): 88.0%
- LDL-uptake restored (versus untreated cells) (HepG2 cells; peptide 10.0 µM + 4.0 µg/mL PCSK9, 2 h): 92.5%

- Impairment of PCSK9-LDLR binding versus control [3]: −69.8%
Molecule: Ac-TVFTSWEEALDWV-NH2 [[Y9A]Pep2-8]
- LDLR protein level restored (versus control cells) [2, 5]: 81.9%
- LDLR protein level restored (versus control cells) [2, 6]: 89.9%
- Times more active than Pep2-8 in restoring LDL uptake (HepG2 cells): about 50 fold
- LDL-uptake restored (versus untreated cells) (HepG2 cells; [7]): 83.4%
- LDL-uptake restored (versus untreated cells) (HepG2 cells; [8]): 99.0%

- IC50 [4]: 27.1 µM
- percent change of PCSK9-LDLR binding at 100 µM peptide versus the control [4]: -69.8%
B2: [Y9A]Pep2-8 (Ac-TVFTSWEEALDWV-NH2) (peptide)
peptide: Ac-TVFTSWEEALDWV-NH2
notes: analog of Pep2-8 with Y9A, designed by computation; source: synthetic peptide (bought: PRIMM Biotech / GenScript, >95% purity)

The next lines start with the molecule.

Molecule: Ac-TVFTSWEEYLDWV-NH 2 [Pep2-8, reference compound]
- Surface LDLR levels renewed ([1]; FACS, 50 μM peptide, 4 h co-incubation with 15 μg/mL PCSK9, ref Zhang and co-workers): about 70%
- LDLR protein level restored (versus control cells) ([2]; peptide 50 µM + 4 µg/mL PCSK9, 2 h): 83.36% and 83.4%
- LDL-uptake restored (versus untreated cells) (HepG2 cells; peptide 50 µM + 4.0 µg/mL PCSK9, 2 h): 98.9%

Molecule: Ac-TAFTSWEEYLDWV-NH2 [[V2A]Pep2-8, alanine single-point mutant of Pep2-8, computational only]
- Affinity on PCSK9 (PCSK9): low affinity

Molecule: TVFTSWEEYLDWV-GSC- CRLPWNLQRIGLPG [Fusion 1 peptide]
- LDLR restored in presence of PCSK9 ([1]; HepG2 cells, 5.0 µM (tested 0.1 to 5.0 µM)): 90%
- Fold more potent than reference peptide Pep2-8 in preventing PCSK9-mediated cell surface LDLR degradation ([1]; HepG2 cells): about 20 fold

Molecule: LILPKHSDAD [Peptide P5]
- IC50 (PCSK9/LDLR PPI): 1.6 µM

B1: [T4R,W12Y]Pep2-8 (Ac-TVFRSWEEYLDYV-NH2) (peptide)
peptide: Ac-TVFRSWEEYLDYV-NH2
notes: analog of Pep2-8 with T4R and W12Y, designed by computation; source: synthetic peptide (bought: PRIMM Biotech / GenScript, >95% purity)
- IC50 [4]: 14.5 µM
- percent change of PCSK9-LDLR binding at 100 µM peptide versus the control [4]: -93%
